ChEMBL document CHEMBL4007464, “Lead Development of Thiazolylsulfonamides with Carbonic Anhydrase Inhibitory Action” (J Med Chem, 2017)

Tests used:
Carbonic anhydrase 9 = Carbonic anhydrase 9 (Homo sapiens, UniProt Q16790); experiment: Inhibition of recombinant human Carbonic anhydrase 9 assessed as reduction in CO2 hydration preincubated for 15 mins prior to testing measured for 10 to 100 secs by stopped-flow assay
[1] = molecular target: Carbonic anhydrase 5B, mitochondrial (Homo sapiens, UniProt Q9Y2D0); experiment: Inhibition of recombinant human Carbonic anhydrase 5B assessed as reduction in CO2 hydration preincubated for 15 mins prior to testing measured for 10 to 100 secs by stopped-flow assay
Carbonic anhydrase 5B, mitochondrial, sequence (Q9Y2D0 whole entry): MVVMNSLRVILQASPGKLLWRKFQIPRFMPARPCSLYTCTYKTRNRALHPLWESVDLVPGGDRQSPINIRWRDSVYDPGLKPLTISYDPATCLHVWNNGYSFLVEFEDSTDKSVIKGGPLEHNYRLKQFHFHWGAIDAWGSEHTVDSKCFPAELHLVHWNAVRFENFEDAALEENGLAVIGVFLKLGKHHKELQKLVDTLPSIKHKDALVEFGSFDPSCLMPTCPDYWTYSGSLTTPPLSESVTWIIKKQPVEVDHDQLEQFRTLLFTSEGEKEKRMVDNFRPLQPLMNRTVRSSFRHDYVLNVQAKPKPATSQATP

[2] = molecular target: Carbonic anhydrase 5A, mitochondrial (Homo sapiens, UniProt P35218); experiment: Inhibition of recombinant human Carbonic anhydrase 5A assessed as reduction in CO2 hydration preincubated for 15 mins prior to testing measured for 10 to 100 secs by stopped-flow assay
Carbonic anhydrase 5A, mitochondrial, sequence (P35218 whole entry): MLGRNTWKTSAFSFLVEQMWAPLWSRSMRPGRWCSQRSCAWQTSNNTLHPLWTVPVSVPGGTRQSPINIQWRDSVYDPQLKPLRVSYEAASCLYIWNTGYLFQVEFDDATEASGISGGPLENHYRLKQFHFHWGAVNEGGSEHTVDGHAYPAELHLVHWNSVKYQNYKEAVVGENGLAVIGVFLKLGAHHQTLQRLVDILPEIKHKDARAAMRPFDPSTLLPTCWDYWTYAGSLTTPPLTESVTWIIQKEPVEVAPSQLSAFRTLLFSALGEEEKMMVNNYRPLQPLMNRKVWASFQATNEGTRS

[3] = Inhibition of carbonic anhydrase in human whole blood assessed as reduction in CO2 hydration preincubated for 15 mins prior to testing measured for 10 to 100 secs by stopped-flow assay
Carbonic anhydrase 12 = Carbonic anhydrase 12 (Homo sapiens, UniProt O43570); experiment: Inhibition of recombinant human Carbonic anhydrase 12 assessed as reduction in CO2 hydration preincubated for 15 mins prior to testing measured for 10 to 100 secs by stopped-flow assay
Carbonic anhydrase 12, sequence (O43570 whole entry): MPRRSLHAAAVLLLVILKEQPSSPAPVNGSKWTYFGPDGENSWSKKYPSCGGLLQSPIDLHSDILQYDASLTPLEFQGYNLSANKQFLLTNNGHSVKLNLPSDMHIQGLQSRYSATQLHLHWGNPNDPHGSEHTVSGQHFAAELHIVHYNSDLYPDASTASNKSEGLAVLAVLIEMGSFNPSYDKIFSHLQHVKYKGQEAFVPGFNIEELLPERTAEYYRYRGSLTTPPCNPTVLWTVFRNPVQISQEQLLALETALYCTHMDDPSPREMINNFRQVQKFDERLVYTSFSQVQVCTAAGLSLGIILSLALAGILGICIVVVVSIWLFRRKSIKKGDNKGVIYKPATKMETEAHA

[4] = Inhibition of carbonic anhydrase in rat whole blood assessed as reduction in CO2 hydration preincubated for 15 mins prior to testing measured for 10 to 100 secs by stopped-flow assay
[5] = Inhibition of carbonic anhydrase in mouse whole blood assessed as reduction in CO2 hydration preincubated for 15 mins prior to testing measured for 10 to 100 secs by stopped-flow assay
Carbonic anhydrase 2 = Carbonic anhydrase 2 (Homo sapiens, UniProt P00918); experiment: Inhibition of recombinant human Carbonic anhydrase 2 assessed as reduction in CO2 hydration preincubated for 15 mins prior to testing measured for 10 to 100 secs by stopped-flow assay
Carbonic anhydrase 1 = Carbonic anhydrase 1 (Homo sapiens, UniProt P00915); experiment: Inhibition of recombinant human Carbonic anhydrase 1 assessed as reduction in CO2 hydration preincubated for 15 mins prior to testing measured for 10 to 100 secs by stopped-flow assay
Carbonic anhydrase 1, sequence (P00915 whole entry): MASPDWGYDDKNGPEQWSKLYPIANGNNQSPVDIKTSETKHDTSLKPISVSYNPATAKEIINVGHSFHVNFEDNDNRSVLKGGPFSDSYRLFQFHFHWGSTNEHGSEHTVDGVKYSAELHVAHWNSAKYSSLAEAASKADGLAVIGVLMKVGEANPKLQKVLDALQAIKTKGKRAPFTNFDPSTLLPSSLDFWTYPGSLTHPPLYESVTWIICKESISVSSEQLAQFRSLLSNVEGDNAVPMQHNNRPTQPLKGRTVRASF

| Ki (Carbonic anhydrase 9) [µM] | SMILES | other results |
| --- | --- | --- |
| 0.081 | Cc1nc(N(C)C(=O)Cc2ccc(-c3ccccn3)cc2)sc1S(N)(=O)=O [PRITELIVIR] | Ki [1]: 0.389 µM; Ki [2]: 0.474 µM; IC50 [3]: 0.0653 µM; Ki (Carbonic anhydrase 12): 0.0772 µM; IC50 [4]: 0.115 µM; IC50 [5]: 0.134 µM; Ki (Carbonic anhydrase 2): 0.0128 µM; Ki (Carbonic anhydrase 1): 0.323 µM |
| 0.464 | Cc1nc(N(C)C(=O)Cc2ccc(-c3ccccn3)cc2)sc1S(N)(=O)=O | Ki [1]: 0.251 µM; Ki [2]: 0.816 µM; Ki (Carbonic anhydrase 12): 0.0613 µM; Ki (Carbonic anhydrase 2): 0.014 µM; Ki (Carbonic anhydrase 1): 0.262 µM |
| 0.0281 | CCc1nc(N(C)C(=O)Cc2ccc(-c3ccccn3)cc2)sc1S(N)(=O)=O |  |
| 0.0691 | Cc1nc(N(C)C(=O)Cc2ccc(-c3cnccn3)cc2)sc1S(N)(=O)=O |  |
| 0.0101 | Cc1nc(N(C)C(=O)Cc2ccc(-c3ccccc3F)cc2)sc1S(N)(=O)=O |  |
| 0.0256 | CNS(=O)(=O)c1sc(N(C)C(=O)Cc2ccc(-c3ccccc3F)cc2)nc1C |  |
| 0.261 | Cc1nc(N(C)C(=O)Cc2ccc(-c3cccc[n+]3C)cc2)sc1S(N)(=O)=O |  |
| 0.001 | Cc1nc(N(C(=O)Cc2ccc(-c3ccccc3)cc2)C2CC2)sc1S(N)(=O)=O |  |
| 0.0514 | Cc1nc(N(C)C(=O)Cc2ccc(-c3cc(F)ccc3F)cc2)sc1S(N)(=O)=O |  |
| 0.0429 | CN(C(=O)Cc1ccc(-c2ccccn2)cc1)c1nc(CO)c(S(N)(=O)=O)s1 |  |
| 0.0408 | CNS(=O)(=O)c1sc(N(C)C(=O)Cc2ccc(-c3ccccc3)cc2)nc1C |  |
| 0.035 | Cc1nc(N(C)C(=O)Cc2ccc(-n3cccn3)cc2)sc1S(N)(=O)=O |  |
| 0.0009 | Cc1nc(N(C)C(=O)Cc2ccc(-c3ccccc3)cc2)sc1S(N)(=O)=O |  |
| 0.0009 | Cc1nc(N(C)C(=O)Cc2ccc(-c3cccc(F)c3)cc2)sc1S(N)(=O)=O |  |
| 0.0218 | COc1c(F)cccc1-c1ccc(CC(=O)N(C)c2nc(C)c(S(N)(=O)=O)s2)cc1 |  |
| 0.0247 | CNS(=O)(=O)c1sc(N(C)C(=O)Cc2ccc(-c3ccccn3)cc2)nc1C |  |
| 0.0445 | Cc1nc(N(C)C(=O)Cc2ccc(-c3ccccc3)cc2)sc1S(=O)(=O)NCCO |  |

| SMILES | Ki (Carbonic anhydrase 9) [µM] | other results |
| --- | --- | --- |
| CNS(=O)(=O)c1sc(N(CCN(C)C)C(=O)Cc2ccc(-c3ccccc3)cc2)nc1C | 0.014 |  |
| Cc1nc(N(CCN(C)C)C(=O)Cc2ccc(-c3ccccc3)cc2)sc1S(N)(=O)=O | 0.022 |  |
